Earlier results in publication PMC10766353, “Oral FXIIa inhibitor KV998086 suppresses FXIIa and single chain FXII mediated kallikrein kinin system activation” (Frontiers in Pharmacology, 2023).
Read-outs that look alike come from different tables or passages of the source.

Experiments:
[1] = tested on: HAE attacks; set-up: method as in Craig et al., 2023; settings: six-month study, ref Craig et al., 2023
[2] = tested on: HAE attacks; set-up: method as in Banerji et al., 2018; settings: 26-week phase 3 study; ref Banerji et al., 2018

| Molecule | HAE attack reduction ([1]; monthly administration) [%] | patients attack free [1] [%] | HAE attack reduction [2] [%] | patients attack free [2] [%] |
| --- | --- | --- | --- | --- |
| garadacimab: a monoclonal antibody that inhibits FXIIa | 87 | 62 | – | – |
| lanadelumab: monoclonal antibody PKa inhibitor (antibody, chains of the INN, looked up, V domains shown) VH: EVQLLESGGGLVQPGGSLRLSCAASGFTFSHYIMMWVRQAPGKGLEWVSGIYSSGGITVYADSVKGRFTISRDNSKNTLYLQMNSLRAEDTAVYYCAYRRIGVPRRDEFDIWGQGTMVTVSS VL: DIQMTQSPSTLSASVGDRVTITCRASQSISSWLAWYQQKPGKAPKLLIYKASTLESGVPSRFSGSGSGTEFTLTISSLQPDDFATYYCQQYNTYWTFGQGTKVEIK | – | – | 87 | 44 |
